The record followed here is patent US10300155B2, “Alpha-synuclein ligands” (Washington University, priority 2015, dated 2019).

Broadly, the Ki is the dissociation constant of the complex between target and ligand, obtained from inhibition or displacement. Usually EC50 stands for the concentration at which the effect is half-maximal.

Several values for one entry are separate records, joined by “and”; a condition that tells them apart may be missing. Equal values may be shown once. Read-outs that look alike come from different tables or passages of the source.

The target of this test is T1, α-synuclein fibrils (Homo sapiens, UniProt P37840).
T1 construct: made in house; host or cells: E. coli BL21(DE3)RIL
Kind of test: ThT competitive assay for α-synuclein fibrils (Table 1). It counts as binding. The following applies: for EC50: α-synuclein fibrils. As to the method: Upon binding to amyloid fibrils, a peak at approximately 440 nm becomes dominant with the fluorescent emission maximum shifted to 480 nm. This is accompanied by a strong enhancement of the fluorescence.
α-Synuclein recombinant protein was produced in E. coli. […] Freshly transformed BL21 colonies were inoculated into 2 L baffled flasks containing 250 mL sterilized TB (1.2% bactotryptone, 2.4% yeast extract, 0.4% glycerol, 0.17 M KH2PO4, 0.72 M K2HPO4) with 50 μg/ml ampicillin, and incubated overnight at 37° C. with shaking.
To determine the concentration of fibrils, the reaction mixture (100 μL) was centrifuged at 18,000×g for 10 minutes to separate fibrils from monomer. The α-synuclein monomer and other soluble proteins in the supernatant were removed, and the fibril pellet was resuspended in 100 μL solution of Tris-HCl (20 mM) and NaCl (100 mM). This fibril suspension was used in a bicinchoninic acid (BCA) protein assay along with a bovine serum albumin (BSA) standard curve to determine the concentration of fibrils in the 72 hour fibril reaction mixture.
To prepare the fibrils for performing binding assays, the fibril reaction mixture prepared above was centrifuged at 18,000×g for 10 minutes.
Once the ThT-α-synuclein saturation binding curve and dissociation constant (Kd) were determined the competitive assay for determining the binding affinity of various test compounds was conducted. […] The mixture was incubated at room temperature for 60 minutes on the shaking plate. The fluorescent intensity for each cell was measured by the fluorescence reader at λex and λem. The Ki value for each compound was calculated by the corresponding inhibition curve.
The Ki values were derived from the EC50 values using the Cheng-Prusoff equation: Ki=EC50/(1+[radioligand]/Kd). See FIGS. 17.1-31.2 for the inhibition curves for each compound in the ThioT competitive binding assay.

Setting [1] is: average, read-out: Ki (nM) α-syn (avg).
[2] abbreviates: individual determinations, read-out: Ki (nM) α-syn.
[3] abbreviates: average, read-out: EC50 (nM) EC50 (avg).
Where [4] appears, read: individual determinations, read-out: EC50 (nM) EC50.

Consider `COc1ccc2c(c1)NC(=O)/C(=C/C=C/c1ccc([N+](=O)[O-])cc1)O2` [TZ-19-122], for which the Ki came out at 598 nM under setting [1] and 598 nM under setting [2].
As to `COc1ccc2c(c1)NC(=O)/C(=C/C=C/c1ccc([N+](=O)[O-])cc1)S2` [TZ-19-124], the Ki reads like this: under setting [1], 254 nM; under setting [2], 254 nM.
Turning to `C(=C\c1ccccc1)/CN1c2ccccc2Sc2ccccc21` [TZ-19-126], the Ki under setting [1] worked out at 3880 nM and the Ki under setting [2] was 3880 nM.
With `C(=C\c1ccccc1)/CN1c2ccccc2Oc2ccccc21` [TZ-19-136], the Ki is, setting by setting: under setting [1], 3060 nM; under setting [2], 3060 nM.
For `CN(C)c1ccc(/C=C/CN2c3ccccc3Oc3ccccc32)cc1` [TZ-19-138], the Ki runs as follows: under setting [1], 3090 nM; under setting [2], 3090 nM.
In the case of `COc1ccc2c(c1)Oc1cc([N+](=O)[O-])ccc1N2C/C=C/c1ccc(N(C)C)cc1` [TZ-19-140], the Ki by setting is: under setting [1], 467 nM; under setting [2], 467 nM.
For `COc1ccc2nc(/C=C/c3ccccc3)ccc2c1` [TZ-19-144], the Ki is 196 nM under setting [1] and 196 nM under setting [2].
With `COc1ccc2ccc(/C=C/c3ccccc3)nc2c1` [TZ-19-146], the Ki is, setting by setting: under setting [1], 666 nM; under setting [2], 666 nM.
In the case of `COc1cccc2ccc(/C=C/c3ccccc3)nc12` [TZ-19-148], the Ki worked out at 614 nM under setting [1] and 614 nM under setting [2].
On to `COc1cccc2nc(/C=C/c3ccccc3)ccc12` [TZ-19-152], for which the Ki came to 532 nM under setting [1] and 532 nM under setting [2].
On to `COc1ccc2nc(/C=C/c3ccncc3)ccc2c1` [TZ-19-158], for which the inhibition constant Ki turned out to be 29.1 nM under setting [1] and 29.1 nM under setting [2].
For the molecule `COc1ccc(C(=O)C2CCN(C(=O)COC(=O)c3ccc(C(C)(C)C)cc3)CC2)cc1` [TZ-20-11], the Ki is, setting by setting: under setting [1], 5090 nM; under setting [2], 5090 nM.
With `COc1ccc(C2CCN(C(=O)COC(=O)c3ccc(C(C)(C)C)cc3)CC2)cc1` [TZ-20-23], the Ki runs as follows: under setting [1], 109 nM; under setting [2], 109 nM.
In the case of `COC(=O)c1ccc(/C=C/c2ccncc2)cc1` [TZ-20-35], the Ki worked out at 16.1 nM under setting [1] and 16.1 nM under setting [2].
Regarding `COc1ccc(C2CCN(C(=O)c3ccc(/C=C/c4ccncc4)cc3)CC2)cc1` [TZ-20-39], the Ki under setting [1] was determined as 2460 nM and the Ki under setting [2] stood at 2460 nM.
Regarding `COc1ccc(C(=O)N2CCN(C(=O)c3ccc(/C=C/c4ccncc4)cc3)CC2)cc1` [TZ-20-45], the Ki by setting is: under setting [1], 181 nM; under setting [2], 181 nM.
As for `COc1ccc(C(=O)C2CCN(C(=O)c3ccc(/C=C/c4ccncc4)cc3)CC2)cc1` [TZ-20-51], the Ki is, setting by setting: under setting [1], 184 nM; under setting [2], 184 nM.
For `O=[N+]([O-])c1ccc(/C=C/c2ccncc2)cc1` [TZ-20-59], the Ki under setting [1] amounted to 52.8 nM and the Ki under setting [2] stood at 52.8 nM.
On to `O=C(OCCF)c1ccc(/C=C/c2ccncc2)cc1` [TZ-20-63], for which the Ki reads like this: under setting [1], 96 nM; under setting [2], 96 nM.
Regarding `CC(C)OC(=O)c1ccc(/C=C/c2ccncc2)cc1` [TZ-20-65], the Ki by setting is: under setting [1], 75.6 nM; under setting [2], 75.6 nM.
As for `CNC(=O)c1ccc(/C=C/c2ccncc2)cc1` [TZ-20-69], the Ki under setting [1] is 85.6 nM and the Ki under setting [2] is 85.6 nM.
Take `Fc1ccc(/C=C/c2ccncc2)cc1` [TZ-20-73]: the Ki came to 432 nM under setting [1] and 432 nM under setting [2].
Regarding `FC(F)(F)c1ccc(/C=C/c2ccncc2)cc1` [TZ-20-75], the Ki reads like this: under setting [1], 36.8 nM; under setting [2], 36.8 nM.
For `COC(=O)C(Cc1ccc(O)cc1)NC(=O)c1ccc(/C=C/c2ccncc2)cc1` (stereo not drawn) [TZ-20-77], the Ki under setting [1] came out at 523 nM and the Ki under setting [2] was found to be 523 nM.
As to `O=C(NCCF)c1ccc(/C=C/c2ccncc2)cc1` [TZ-20-79], the Ki turned out to be 115 nM under setting [1] and 115 nM under setting [2].
In the case of `COc1ccccc1NC(=O)c1ccc(/C=C/c2ccncc2)cc1` [TZ-20-81], the Ki is, setting by setting: under setting [1], 150 nM; under setting [2], 150 nM.
`COc1ccc(NC(=O)c2ccc(/C=C/c3ccncc3)cc2)cc1` [TZ-20-83]: the Ki under setting [2] is 19.1 nM.
Take `CNc1ccc(/C=C/c2ccncc2)cc1` [TZ-20-97]: under setting [2], the Ki was 33.9 nM.
With `COC(=O)c1ccc(/C=C/C=C/c2ccncc2)cc1` [TZ-20-111], the Ki under setting [2] is 56 nM.
`COc1ccc(/C=C/c2cnccn2)cc1` [TZ-22-1-2]: the Ki reads like this: under setting [1], 31.9 nM; under setting [2], 31.9 nM.
For `COc1ccc(/C=C/c2ccncn2)cc1` [TZ-22-19-1], the Ki under setting [1] stood at 154 nM and the Ki under setting [2] was 154 nM.
Turning to `COc1ccc(/C=C/c2cccnn2)cc1` [TZ-22-23-1], the Ki was 1140 nM under setting [1] and 1140 nM under setting [2].
As to `COc1ccc(/C=C/c2ncccn2)cc1` [TZ-22-31-1], the Ki under setting [1] stood at 2770 nM and the Ki under setting [2] was determined as 2770 nM.
Consider `CN(C)c1ccc(/C=C/c2cnccn2)cc1` [TZ-22-35-1], for which the Ki under setting [1] was determined as 698 nM and the Ki under setting [2] worked out at 698 nM.
As to `COc1ccc(/C=C/c2cnccn2)cc1OC` [TZ-22-37-1], the Ki under setting [1] stood at 213 nM and the Ki under setting [2] amounted to 213 nM.
For the molecule `Brc1ccc(/C=C/c2cnccn2)cc1` [TZ-22-47-1], the Ki was 76.7 nM under setting [1] and 76.7 nM under setting [2].
Regarding `COc1cccc(/C=C/c2cnccn2)c1` [TZ-22-49-1], the Ki was found to be 117 nM under setting [1] and 117 nM under setting [2].
On to `COc1ccc2ccc(/C=C/c3ccncc3)nc2c1` [TZ-23-02], for which the inhibition constant Ki runs as follows: under setting [1], 71.8 nM; under setting [2], 71.8 nM.
Consider `COc1cccc2nc(/C=C/c3ccncc3)ccc12` [TZ-23-06], for which the Ki by setting is: under setting [1], 96.3 nM; under setting [2], 96.3 nM.
As for `COc1ccc2nc(/C=C/c3cnccn3)ccc2c1` [TZ-23-12], the Ki was determined as 36.4 nM under setting [1] and 36.4 nM under setting [2].
Regarding `COc1ccc2ccc(/C=C/c3cnccn3)nc2c1` [TZ-23-16], the Ki under setting [1] was 3180 nM and the Ki under setting [2] amounted to 3180 nM.
Regarding `COc1cc(/C=C/c2cnccn2)nc2ccccc12` [TZ-23-20], the Ki under setting [1] is 3030 nM and the Ki under setting [2] amounted to 3030 nM.
For `O=C(Nc1ccc(Br)cc1)c1ccc(/C=C/c2ccncc2)cc1` [TZ-23-52], the Ki under setting [1] turned out to be 10.4 nM.
In the case of `O=C(Nc1ccc(I)cc1)c1ccc(/C=C/c2ccncc2)cc1` [TZ-23-56], the Ki reads like this: under setting [1], 19.8 nM; under setting [2], 19.8 nM.
As for `O=C(Nc1ccc(OCCF)cc1)c1ccc(/C=C/c2ccncc2)cc1` [TZ-23-88], the Ki reads like this: under setting [1], 32.1 nM; under setting [2], 24.3 nM and 40 nM. The EC50 is, setting by setting: under setting [3], 83.8 nM; under setting [4], 63.5 nM and 104 nM.
For `Fc1ccc(-c2ccc(-c3nc4cc(Br)ccc4o3)cc2C(F)(F)F)cn1` [TZ-31-108], the Ki was 1540 nM under setting [1] and 1540 nM under setting [2]. The EC50 by setting is: under setting [3], 4030 nM; under setting [4], 4030 nM.
As for `OCc1ccc2oc(-c3ccc(-c4ccc(F)nc4)c(C(F)(F)F)c3)nc2c1` [TZ-31-123], the Ki turned out to be 31400 nM under setting [1] and 31400 nM under setting [2]. For the same molecule, the EC50 runs as follows: under setting [3], 82000 nM; under setting [4], 82000 nM.
`COC(=O)c1ccc2oc(-c3ccc(-c4ccc(F)nc4)c(C(F)(F)F)c3)nc2c1` [TZ-31-125]: the Ki runs as follows: under setting [1], 1560 nM; under setting [2], 1560 nM. The EC50 under setting [3] was found to be 4090 nM and the EC50 under setting [4] is 4090 nM.
For the molecule `COc1ccc(/C=C/c2ccoc2)cc1` [TZ-34-27], the Ki is 551 nM under setting [1]; 1140 nM and 201 nM and 310 nM under setting [2]. Further, the EC50 is 1440 nM under setting [3]; 2990 nM and 527 nM and 812 nM under setting [4].
Turning to `COc1ccc(/C=C/c2cncs2)cc1` [TZ-34-35], the Ki is 323 nM under setting [1]; 313 nM and 333 nM under setting [2]. Besides, the EC50 is, setting by setting: under setting [3], 845 nM; under setting [4], 819 nM and 871 nM.
Consider `COc1ccc(/C=C/c2cc(C)cs2)cc1` [TZ-34-38], for which the Ki is, setting by setting: under setting [1], 252 nM; under setting [2], 387 nM and 114 nM and 256 nM. Besides, the EC50 is 661 nM under setting [3]; 1010 nM and 299 nM and 671 nM under setting [4].
Turning to `COc1ccc(/C=C/c2cc(Br)cs2)cc1` [TZ-34-39], the Ki under setting [1] amounted to 256 nM; the Ki under setting [2] was 233 nM and 278 nM. Further, the EC50 is, setting by setting: under setting [3], 668 nM; under setting [4], 609 nM and 727 nM.
Consider `COc1ccc(/C=C/c2ccc(-c3cccs3)s2)cc1` [TZ-34-40], for which the Ki was 450 nM under setting [1]; 500 nM and 400 nM under setting [2]. For the same molecule, the EC50 runs as follows: under setting [3], 1180 nM; under setting [4], 1310 nM and 1050 nM.
On to `COc1ccc(/C=C/c2ccc(C=O)s2)cc1` [TZ-34-41], for which the Ki is, setting by setting: under setting [1], 148 nM; under setting [2], 148 nM. In addition, the EC50 was 387 nM under setting [3] and 387 nM under setting [4].
On to `COc1ccc(/C=C/c2ccc(CO)s2)cc1` [TZ-34-46], for which the Ki under setting [1] came to 108 nM; the inhibition constant Ki under setting [2] is 105 nM and 110 nM. In addition, the EC50 is 281 nM under setting [3]; 275 nM and 287 nM under setting [4].
With `Brc1ccc(/C=C/c2cccs2)cc1` [TZ-34-55], the Ki runs as follows: under setting [1], 198 nM; under setting [2], 198 nM. For the same molecule, the EC50 is 519 nM under setting [3] and 519 nM under setting [4].
